Biological target: T1, human CCR5 (Homo sapiens, UniProt P51681)
T1 construct: expressed in transfected cells; host or cells: CHO cells
Experiment: Inhibition of binding of [125I]-labeled MIP-1β to membrane fraction of CHO cells expressing human CCR5
Conditions: at a concentration of 10 μM, [125I]-MIP-1β 0.1 to 0.5 nM, read-out: inhibitory activity against binding of human MIP-1β to the membrane fraction of the cells expressing CCR5, Inhibition(%)
Procedure: Measurement of Inhibitory Activity of a Compound Against Binding of [^125I]-Labeled MIP-1β to Membrane Fraction of the Cells Expressing CCR5
To a 96-well plate made of polystyrene, were respectively added 20 μL of a solution prepared by diluting each test compound with an assay buffer (50 mM HEPES, pH 7.4, 5 mM MgCl2, 1 mM CaCl2, 0.2% BSA), 25 μL of a solution obtained by diluting [^125I]-labeled MIP-1β (NEN Life Science Products, Inc.) with the assay buffer so as to provide 0.1 to 0.5 nM and 155 μL (including 4 μg of the membrane fraction) of a suspension prepared by suspending a membrane fraction of CHO cells expressing human CCR5 (the final volume of the reaction solution: 200 μL). […]
After completing the reaction, the reaction suspension was filtered through Filtermate (Packard Instrument Co.), and the filter washed with 250 μL of a precooled washing buffer (10 mM HEPES, pH 7.4, 0.5 M NaCl) nine times. […] The radioactivity was counted using TopCount NXT (Packard Instrument Co.).
The count when 0.2 μM of human MIP-1α instead of the test compound was added was subtracted as nonspecific binding, and the count when the test compound was not added was taken as 100%. Thereby, the inhibitory activity of the test compound against binding of the human MIP-1β to the membrane fraction of the cells expressing CCR5 was calculated. […]

T1 sequence (P51681 whole entry): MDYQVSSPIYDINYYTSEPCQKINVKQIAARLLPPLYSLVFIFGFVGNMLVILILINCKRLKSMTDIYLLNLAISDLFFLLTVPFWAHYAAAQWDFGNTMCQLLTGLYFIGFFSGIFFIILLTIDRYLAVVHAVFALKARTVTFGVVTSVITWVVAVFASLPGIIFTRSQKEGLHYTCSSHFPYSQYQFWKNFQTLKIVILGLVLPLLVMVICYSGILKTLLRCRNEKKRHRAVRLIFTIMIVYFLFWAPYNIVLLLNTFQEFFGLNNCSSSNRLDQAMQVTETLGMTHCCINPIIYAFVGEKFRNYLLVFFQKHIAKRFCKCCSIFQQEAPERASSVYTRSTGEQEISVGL

inhibition at 10 µM: 20 to 50%
SMILES: O=C(CNC(=O)c1cccc(SC(F)(F)F)c1)N[C@@H]1CCN(Cc2ccc(Cl)cc2)C1 [Compd. No. 1606, (R)-1-(4-chlorobenzyl)-3-[{N-(3-(trifluoromethylthio)benzoyl)glycyl}amino]pyrrolidine]

From US20070249701A1, “Cyclic amine CCR5 receptor antagonists” (TEIJIN LIMITED, priority 1999, published 2007)
